pIC50, pKd, pKi: −log10 of the molar value. Where a SMILES comes first, the peptide text is derived from it. [ ]: non-standard residue; d: D form. Lys(Me3) = C[N+](C)(C)CCCC[C@H](N)C(=O)O
Assays:
[1] = Plasma concentration in Swiss albino mouse at 50 mg/kg, ip measured up to 24 hrs by LC-MS/MS analysis; format: ADME, organism-based
[2] = tested on: KARPAS-422; test: Antiproliferative activity against human Karpas422 cells after 14 days by celltiter-glo luminescent cell viability assay; format: functional; conditions: KARPAS-422, 336 h, time 14 day
[3] = Drug concentration in cytoplasm of human G401 cells assessed per million cells at 10 uM incubated for 2 hrs by UPLC-MS analysis; format: ADME, subcellular; conditions: g-401, 2 h
[4] = Drug concentration in nucleus of human G401 cells assessed per million cells at 10 uM incubated for 2 hrs by UPLC-MS analysis; format: ADME, subcellular; conditions: g-401, 2 h
[5] = molecular target: T1, Histone-lysine N-methyltransferase EZH1 (Homo sapiens, UniProt Q92800); test: Inhibition of EZH1 in PRC2 complex (unknown origin) using biotinylated peptide as substrate in presence of S-adenosylmethionine
T1 sequence (Q92800 whole entry): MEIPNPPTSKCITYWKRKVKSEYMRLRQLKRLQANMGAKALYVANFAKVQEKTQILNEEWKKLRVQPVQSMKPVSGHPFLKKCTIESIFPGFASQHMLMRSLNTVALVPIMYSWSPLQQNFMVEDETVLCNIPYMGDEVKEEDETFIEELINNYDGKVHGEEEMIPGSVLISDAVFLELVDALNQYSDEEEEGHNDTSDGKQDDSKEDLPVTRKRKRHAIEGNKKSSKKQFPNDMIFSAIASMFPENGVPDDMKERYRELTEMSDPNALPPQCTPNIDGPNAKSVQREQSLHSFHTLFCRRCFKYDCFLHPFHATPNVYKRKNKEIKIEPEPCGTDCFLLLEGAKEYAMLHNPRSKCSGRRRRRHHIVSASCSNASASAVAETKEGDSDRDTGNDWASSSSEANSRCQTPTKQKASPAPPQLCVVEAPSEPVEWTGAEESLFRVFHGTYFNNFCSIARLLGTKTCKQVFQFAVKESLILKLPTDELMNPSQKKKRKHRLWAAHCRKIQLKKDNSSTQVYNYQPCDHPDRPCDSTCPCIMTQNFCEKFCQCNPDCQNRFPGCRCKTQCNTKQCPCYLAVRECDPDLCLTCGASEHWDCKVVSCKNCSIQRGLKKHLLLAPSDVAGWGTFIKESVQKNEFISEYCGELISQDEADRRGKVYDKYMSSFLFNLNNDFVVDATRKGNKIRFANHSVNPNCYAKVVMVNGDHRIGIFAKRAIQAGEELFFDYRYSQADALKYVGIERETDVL

[6] = Plasma concentration in SCID mouse xenografted with human G-401 cells at 125 mg/kg, po BID administered for 21 days and measured at 3 hrs post dose on day 21 by LC-MS/MS analysis; format: ADME, organism-based; conditions: time 21 day
[7] = molecular target: T2, Polycomb protein EED (Homo sapiens, UniProt O75530); test: Binding affinity to EED (unknown origin) by TR-FRET based binding assay
T2 sequence (O75530 whole entry): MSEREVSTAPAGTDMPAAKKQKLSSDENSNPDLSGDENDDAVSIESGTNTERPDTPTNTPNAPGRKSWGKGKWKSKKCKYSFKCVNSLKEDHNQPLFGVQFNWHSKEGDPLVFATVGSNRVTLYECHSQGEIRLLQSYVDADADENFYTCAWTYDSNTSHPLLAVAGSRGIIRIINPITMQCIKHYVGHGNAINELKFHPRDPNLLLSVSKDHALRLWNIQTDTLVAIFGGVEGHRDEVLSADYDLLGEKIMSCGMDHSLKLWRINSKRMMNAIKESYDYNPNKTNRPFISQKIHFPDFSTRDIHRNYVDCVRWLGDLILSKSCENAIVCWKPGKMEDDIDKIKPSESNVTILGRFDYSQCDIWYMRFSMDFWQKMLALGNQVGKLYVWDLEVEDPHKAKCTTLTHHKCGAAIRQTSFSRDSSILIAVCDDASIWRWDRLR

[8] = tested on: CT26; test: Antitumor activity against mouse CT26 cells implanted in NOD/SCID mouse assessed as tumor growth inhibition at 30 mg/kg, PO relative to control; format: functional; conditions: read-out: TGI
[9] = molecular target: von Hippel-Lindau disease tumor suppressor/Polycomb protein EED (Homo sapiens) (UniProt O75530+P40337); test: Induction of VHL-mediated EED degradation in human HeLa cells at 5 uM incubated for 24 hrs by Western blot analysis relative to control; format: cell-based
Chain of von Hippel-Lindau disease tumor suppressor/Polycomb protein EED (Homo sapiens) (O75530 2-441 limits assumed): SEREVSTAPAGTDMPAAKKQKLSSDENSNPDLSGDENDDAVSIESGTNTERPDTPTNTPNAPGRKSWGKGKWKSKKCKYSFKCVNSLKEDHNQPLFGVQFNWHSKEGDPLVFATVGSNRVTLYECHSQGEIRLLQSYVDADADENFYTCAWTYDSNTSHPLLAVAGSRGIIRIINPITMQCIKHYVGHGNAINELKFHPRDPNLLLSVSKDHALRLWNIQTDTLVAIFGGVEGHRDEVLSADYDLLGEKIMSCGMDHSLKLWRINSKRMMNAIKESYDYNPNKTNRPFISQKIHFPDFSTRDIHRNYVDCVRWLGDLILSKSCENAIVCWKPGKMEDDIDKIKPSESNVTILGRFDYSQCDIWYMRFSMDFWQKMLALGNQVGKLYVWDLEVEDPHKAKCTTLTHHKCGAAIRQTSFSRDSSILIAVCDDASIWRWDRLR
Chain of von Hippel-Lindau disease tumor suppressor/Polycomb protein EED (Homo sapiens) (P40337 whole entry partner): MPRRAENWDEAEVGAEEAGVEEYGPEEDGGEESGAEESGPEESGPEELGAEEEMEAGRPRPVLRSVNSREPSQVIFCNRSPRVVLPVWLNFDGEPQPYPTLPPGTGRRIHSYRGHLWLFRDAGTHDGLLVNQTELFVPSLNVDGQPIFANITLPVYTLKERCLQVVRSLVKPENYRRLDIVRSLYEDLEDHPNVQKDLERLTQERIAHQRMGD

[10] = molecular target: T3, Histone-lysine N-methyltransferase EZH2 (Homo sapiens, UniProt Q15910); test: Inhibition of EZH2 in PRC2 complex (unknown origin) expressed in Sf9 cells using histone H3 (21 to 44)-lys (biotin) and SAM as substrate incubated for 90 mins by radiometric scintillation proximity assay
T3 sequence (Q15910 whole entry): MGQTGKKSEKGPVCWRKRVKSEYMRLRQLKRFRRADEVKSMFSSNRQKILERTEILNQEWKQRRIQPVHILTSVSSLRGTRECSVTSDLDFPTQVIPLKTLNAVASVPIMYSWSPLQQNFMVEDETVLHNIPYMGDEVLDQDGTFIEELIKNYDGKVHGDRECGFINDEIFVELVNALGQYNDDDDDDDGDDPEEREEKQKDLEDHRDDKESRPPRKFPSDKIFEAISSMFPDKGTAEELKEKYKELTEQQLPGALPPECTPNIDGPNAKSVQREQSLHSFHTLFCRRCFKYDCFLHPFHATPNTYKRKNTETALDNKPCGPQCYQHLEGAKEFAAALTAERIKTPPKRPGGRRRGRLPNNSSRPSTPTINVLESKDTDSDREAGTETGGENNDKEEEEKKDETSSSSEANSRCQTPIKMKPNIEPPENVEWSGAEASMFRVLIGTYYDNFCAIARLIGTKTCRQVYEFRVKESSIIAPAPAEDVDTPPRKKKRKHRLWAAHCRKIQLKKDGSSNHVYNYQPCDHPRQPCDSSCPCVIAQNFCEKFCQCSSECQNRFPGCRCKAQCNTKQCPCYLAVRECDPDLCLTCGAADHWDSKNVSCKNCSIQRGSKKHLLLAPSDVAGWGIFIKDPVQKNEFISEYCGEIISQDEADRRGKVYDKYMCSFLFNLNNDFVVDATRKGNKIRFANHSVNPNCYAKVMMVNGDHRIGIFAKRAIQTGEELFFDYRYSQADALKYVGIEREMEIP

[11] = molecular target: T3, Histone-lysine N-methyltransferase EZH2; test: Inhibition of wild type EZH2 in human PRC2 complex using S-adenosylmethionine and biotinylated histone peptides as substrate
[12] = molecular target: T2, Polycomb protein EED; test: Binding affinity to human N-terminal His6-tagged/thrombin cleavage site fused/ AVI-tagged EED (1 to 441 residues) expressed in Escherichia coli BL21(DE3) cells by surface plasmon resonance method
[13] = molecular target: T2, Polycomb protein EED; test: Displacement of 3-FAM from N-terminal 6His-tagged full length EED (unknown origin) expressed in Escherichia coli Rosetta2 BL21(DE3)pLysS incubated for 30 mins by fluorescence polarization assay
[14] = Plasma concentration in mouse xenografted with human Karpas-422 cells at 40 mg/kg, po; format: ADME, organism-based; conditions: in vivo
[15] = molecular target: T2, Polycomb protein EED; test: Binding affinity to EED in PRC2 complex (unknown origin) using H3K27me0 (21 to 44 residue) peptide as substrate by LC-MS analysis
[16] = molecular target: T2, Polycomb protein EED; test: Displacement of UNC5114-biotin tracer ligand from N-terminal 6His-tagged EED (1 to 441 residues) (unknown origin) expressed in Escherichia coli Rosetta2 BL21(DE3)pLysS cells measured after 1 hr by TR-FRET analysis
[17] = molecular target: T3, Histone-lysine N-methyltransferase EZH2; test: Inhibition of EZH2 in PRC2 complex (unknown origin) using biotinylated peptide as substrate in presence of S-adenosylmethionine
[18] = Cmax in Swiss albino mouse at 150 mg/kg, ip measured after 0.08 to 24 hrs; format: ADME, organism-based; set-up: route intraperitoneal, time 0.08-24 hrs, dose 150 mg/kg; conditions: in vivo
[19] = Time at which plasma concentration stays above cellular IC50 for inhibition of EZH2 in Swiss albino mouse at 50 to 150 mg/kg, ip; format: organism-based; conditions: in vivo, dose 50-150 mg/kg
[20] = Time at which plasma concentration stays above cellular IC50 for inhibition of EZH2 in Swiss albino mouse at 15 mg/kg, ip; format: organism-based; conditions: in vivo
[21] = Time at which plasma concentration stays above cellular IC50 for inhibition of EZH2 in Swiss albino mouse at 50 mg/kg, PO; format: organism-based; conditions: in vivo
[22] = molecular target: T2, Polycomb protein EED; test: Displacement of OG(488) labeled probe from GST-tagged EED (unknown origin) incubated for 1 hr by lanthaScreen TR-FRET method

Cc1cc(C)c(CNC(=O)c2cc(-c3ccc(N4CCN(CCNC(=O)CC56CC7CC(CC(C7)C5)C6)CC4)nc3)cc3c2cnn3C(C)C)c(=O)[nH]1
concentration at 24 h [1]: > 1 µM

CNC(=O)CCc1ccc(-c2cnc(NCc3c(F)ccc4c3CCO4)n3cnnc23)c(C)n1
GI50 [2]: 14 nM
Drug uptake [3]: 0.34 pmol
Drug uptake [4]: 0.19 pmol

Cc1cc(C)c(CNC(=O)c2cc(-c3ccc(CN4CCOCC4)cc3)cc3c2cnn3C2CCCC2)c(=O)[nH]1
pIC50 [5]: 7.35
concentration at 504 h [6]: 8 µM

CN(C)[C@H]1CN(C2CCc3cccc(F)c32)C[C@@H]1c1cn(C)c2ccccc12 (stereo not given in full)
pKi [7]: 7.96

Cc1ncccc1-c1cnc(NCc2c(F)ccc3c2CCO3)n2cnnc12
inhibition in vivo at 30 mg/kg [8]: 59%

Cc1ncsc1-c1ccc(CNC(=O)[C@@H]2C[C@@H](O)CN2C(=O)[C@@H](NC(=O)CCCNC(=O)c2ccc(-c3cnc(NCc4ccco4)n4cnnc34)cc2)C(C)(C)C)cc1
Activity [9]: 80%

CCCc1cc(C)[nH]c(=O)c1CNC(=O)c1cc(-c2ccc(N3CCN(C)CC3)nc2)nc2c1cnn2C(C)C
pIC50 [10]: 7.96

Cc1cc(C)c(CNC(=O)c2cc(-c3ccc(CN4CCOCC4)cc3)cc3c2cnn3C(C)C)c(=O)[nH]1
pKi [11]: 7.10

Cc1nc(CCC(=O)NCCOc2ccc(OCC(=O)N[C@H](C(=O)N3C[C@H](O)C[C@H]3C(=O)NCc3ccc(-c4scnc4C)cc3)C(C)(C)C)cc2)ccc1-c1cnc(NCc2c(F)ccc3c2CCO3)n2cnnc12
pKd [12]: > 9.00
GI50 [2]: 45 nM
Drug uptake [3]: 4.69 pmol
Drug uptake [4]: 37.2 pmol

COC(=O)[C@H](C)NC(=O)[C@H](Cc1ccccc1)NC(=O)[C@H](CCCC[N+](C)(C)C)NC(=O)[C@H](CCCNC(=N)N)NC(=O)[C@@H](N)CCC(N)=O (H-QR[Lys(Me3)]FA-OMe)
pIC50 [13]: 4.83

CS(=O)(=O)c1ccc(-c2cnc(NCc3ccco3)n3cnnc23)cc1
concentration [14]: > 30 µM
pIC50 [15]: 7.63
pIC50 [16]: 7.35

CCCc1cc(C)[nH]c(=O)c1CNC(=O)c1cc(-c2ccc(N3CCN(C(C)C)CC3)nc2)cc2c1cnn2C(C)C
pIC50 [17]: 8.70
Cmax [18]: 12 µM
Time [19]: 24 h
Time [20]: 12 h
Time [21]: 20 h

Cc1nc(CCC(=O)NCCCCC(=O)N[C@H](C(=O)N2C[C@H](O)C[C@H]2C(=O)NCc2ccc(-c3scnc3C)cc2)C(C)(C)C)ccc1-c1cnc(NCc2c(F)ccc3c2CCO3)n2cnnc12
pKd [12]: > 9.00
GI50 [2]: 57 nM
Drug uptake [3]: 0.03 pmol
Drug uptake [4]: 0.79 pmol

CN(C)[C@H]1CN(Cc2ccccc2)C[C@@H]1c1ccc(N2CCN(S(C)(=O)=O)CC2)cc1
pKi [22]: 5.74

Cc1cc(C)c(CNC(=O)c2cc(-c3ccc4c(c3)OCCO4)nc3c2cnn3C(C)C)c(=O)[nH]1
pKi [11]: 6.51
